Patent US20140194388A1, “COMBINATION THERAPY OF HSP90 INHIBITORY COMPOUNDS WITH CHK INHIBITORS” (SYNTA PHARMACEUTICALS CORP., priority 2011, published 2014)

What was measured:
[1] = tested on: B-raf; conditions: cited from earlier work
[2] = tested on: CDK1; assay: Western blotting, CDK1 level after ganetespib (FIG. 1); assay type: cell-based, human
Protocol: (§1) The LNCaP, 22Rv1, DU145 and PC3 human prostate cancer cell lines were all purchased from the American Type Culture Collection (Manassas, Va., USA). Cells were maintained and cultured according to standard techniques at 37° C. in 5% (v/v) CO2 using culture medium recommended by the supplier. All primary antibodies were purchased from Cell Signaling Technology (Beverly, Mass., USA) with the exception of RAF1 (Santa Cruz Biotechnology, Santa Cruz, Calif., USA), p-EGFR (Tyr1068) (Invitrogen, Carlsbad, Calif., USA) and actin (GE Healthcare, UK). The Hsp90 inhibitors ganetespib and 17-AAG were synthesized at Synta Pharmaceuticals Corp.
(§2) Prostate cancer cell lines were lysed in RIPA buffer (Cell Signaling Technology, Beverly, Mass. USA). Lysates were clarified by centrifugation and equal amounts of protein resolved by SDS-PAGE before transfer to nitrocellulose membranes. Membranes were blocked with 5% skim milk in TBS with 0.5% Tween and immunoblotted with indicated antibodies. Antigen-antibody complexes were visualized using an Odyssey system (LI-COR, Lincoln, Nebr., USA).

[3] = tested on: CHK1; assay: Western blotting, CHK1 level / CHK activity after ganetespib (FIG. 1); assay type: cell-based, human
Protocol: as §1, §2

Row | Compound | degradation of B-raf ([1]; cancer cells treated with 17AAG) | sensitivity of B-raf mutants E586K and L597V to degradation ([1]; cells treated with 17AAG) | rate of B-raf degradation, V600E mutant vs wild type ([1]; melanoma cell line A375 (V600E) vs CHL cells (wild type B-raf)) | rate of degradation of B-raf mutants V600D, G469A, G469E, G596R, G466V, G594V ([1]; transvected into COS cells) | effect on stability of the master cell cycle regulator CDK1 [2] | disruption of CHK activity by inhibition of Hsp90 activity [3] | effect on stability of the DNA damage checkpoint CHK1 ([3]; FIG. 1)
1 | C=CCNC1=C2C[C@@H](C)C[C@H](OC)[C@H](O)[C@@H](C)/C=C(\C)[C@H](OC(N)=O)[C@@H](OC)/C=C\C=C(/C)C(=O)NC(=CC1=O)C2=O [Compound 17AAG] | stimulate the degradation of B-raf | not sensitive to degradation | degraded more rapidly than in CHL cells | degraded more rapidly than wild type B-raf | – | – | –
2 | CC(C)c1cc(-c2nnc(O)n2-c2ccc3c(ccn3C)c2)c(O)cc1O [ganetespib, 3-(2,4-DIHYDROXY- 5-ISOPROPYL- PHENYL)-4-(1- METHYL-INDOL- 5-YL)-5- HYDROXY- [1,2,4]TRIAZOLE] | – | – | – | – | destabilizes | highly effective in disrupting CHK activity | destabilizes
